The subject of assay [1] is PD-L1. The assay can be described thus: Immunocytochemistry (IHC) analysis of tumor tissue, 4T1 allograft model. It is filed as in vivo, BALB/c mice. The source says: (§1) In order to evaluate changes in the expression of proteins such as BRD4 and HIF-1α, the tumor cells isolated in Example 10 were subjected to immunocytochemistry (IHC) analysis to evaluate the changes in protein expression in the tumor microenvironment according to the treatment method.
(§2) Specifically, tumor tissue was extracted, fixed in 4% paraformaldehyde, and embedded in paraffin to create blocks. The paraffin block containing the tissue was sliced transversely to a thickness of 4 μm and attached to a slide. Paraffin was removed from the tissue attached to the slide using xylene and ethanol, and endogenous peroxidase was removed from the tissue by immersing the slide in a solution of 3% H2O2 in methanol for 10 minutes at room temperature. Then, for antigen retrieval, the slide was placed in 0.01 M sodium citrate buffer (pH 6.0) and boiled. In order to eliminate non-specific binding, FcR on the cell surface was blocked using 5% normal goat serum. Then, the slide was incubated overnight at 4° C. with primary antibodies (HIF-1a (SantaCruz, sc-13515), PD-L1 (Abcam, ab2025921), CD8 (Abcam, ab203035), and CD68 (CellSignaling, 97778)). Secondary antibodies were attached and color development was induced using ImmPRESSGoat Anti-Rat IgG (Mouse Adsorbed) Polymer kit (Vector Laboratories), Abcam (ab150165, ab150081), and REAL En Visiondetection system (Dako). The stained tissue was observed under an Axioskop40 optical microscope (Carl Zeiss) at 40× magnification, and the images were saved using AxioVision4.7 software. The expression level was measured through the area of the stained region in the photograph using Image J software (NIH, Bethesda). Average density values were calculated from at least three slides per sample.

The test system of assay [2] is HIF-1α. The description is as above. Format: in vivo, BALB/c mice.
Excerpt: as §1, §2

In assay [3] the test system is Brd4. Described as above. Format: in vivo, BALB/c mice.
Excerpt: as §1, §2

Assay [4] has as its system CD68+ macrophages. The assay is described as above. Format: in vivo, BALB/c mice.
Excerpt: as §1, §2

Assay [5] relates to CD8+ T cells. The description is as above. Format: in vivo, BALB/c mice.
Excerpt: as §1, §2

In assay [6] the test system is MDA-MB-231. The assay can be described thus: Cell viability assay (WST-8), TNBC cell line. Format: cell-based, human. Particulars: dose dependently. The method, then: (§3) An experiment was performed to confirm the growth inhibitory effect of the compound of Example 1, the active ingredient of the pharmaceutical composition of the present invention, on breast cancer cell lines through cell viability assay.
(§4) Specifically, the cell viability assay was performed as follows. BT20, a human-derived breast cancer cell line, and MDA-MB-231, a TNBC cell line, were each seeded in 96-well plates at the density of 5×10^3 cells/well and cultured for 24 hours. Then, I-bet 762 and the compound of Example 1 were treated thereto at different concentrations and cultured for 48 hours. At the end of the culture, 100 μl of WST-8 solution was added to each well of the plate, and the absorbance was measured with a microplate reader using a 450 nm optical filter to measure the formazan produced by the reducing factors in living cells.
(§5) FIGS. 4A-4C show the cell viability of MDA-MB-231, MDA-MB-453, and BT-20 after 24 hours of treatment with the compound of Example 1. As shown in FIGS. 4A-4C, it was confirmed that the cell viability was suppressed not only in general breast cancer cell lines, but also in TNBC cell lines dose dependently.
For orientation: Tetrazolium assays rely on reduction of a dye to a coloured formazan, in cell work by metabolically active cells.

Assay [7] concerns PD-L1. The assay can be described thus: Western blotting of tumor tissue from MDA-MB-231 tumor-bearing mice. It is filed as in vivo, BALB/c-nude mice. The note with it: 5, 10 and 20 mg/kg (T4, T5, T6), once by intravenous injection. The method, then:
(§6) An experiment was performed to confirm the inhibitory effect of the compound of Example 1, the active ingredient of the pharmaceutical composition of the present invention, on the expression of major proteins on cancer cell growth through Western blotting.
(§7) Specifically, MDA-MB-231 cells, a TNBC cell line, were cultured in a 37° C., 5% CO2 incubator, and the medium used for cell culture was RPMI-1640 supplemented with 10% FBS. Tumors were induced by subcutaneously injecting 5×10^6/head/100 μl of MDA-MB-231 cells into the right neck of BALB/c-nude mice (5 mice each in control and administration groups), and the experiment was performed when the tumor size reached 200 mm^3. The compound of Example 1, the active ingredient of the pharmaceutical composition of the present invention, was administered once by intravenous injection at concentrations of 5, 10, and 20 mg/kg (T4, T5, and T6) and then euthanized using CO2, and the resulting tumor tissues from the control and administration groups were taken and subjected to Western blotting. Proteins were isolated from the tumor tissues and the results of Western blotting were confirmed using BRD4, c-myc, PD-L1, and Actin antibodies, respectively.

The test system of assay [8] is c-myc. Described as above. It is filed as in vivo, BALB/c-nude mice. The note with it: 5, 10 and 20 mg/kg (T4, T5, T6), once by intravenous injection. The method, then: as §6, §7
Assay [9] deals with BRD4. The assay is described as above. It is filed as in vivo, BALB/c-nude mice. The note with it: 5, 10 and 20 mg/kg (T4, T5, T6), once by intravenous injection. The method, then:
as §6, §7

In assay [10] the test system is BT20. The assay can be described thus: Cell viability assay (WST-8), breast cancer cell line. It is filed as cell-based, human. The note with it: dose dependently. The method, then: as §3, §4, §5
The test system of assay [11] is tumor tissues (MDA-MB-231). Nature of the assay: Number of apoptotic bodies in tumor tissues. Format: in vivo, BALB/c-nude mice. The note with it: for number of apoptotic body: sum of five areas at ×400. The method, then: An experiment was performed to confirm the tumor necrosis effect of the compound of Example 1, the active ingredient of the pharmaceutical composition of the present invention, by measuring the number of apoptotic bodies in tumors and H&E staining of the tumor tissues in BALB/c-nude mice injected with cancer cell lines.
Specifically, to measure the number of apoptotic bodies in the tumor tissues of the T4, T5, and T6 groups of Experimental Example 1, five areas where the tumor tissues were growing were randomly selected and the number of apoptotic bodies was measured at ×400 magnification. The sum of the measurements was calculated, expressed as individual values, and statistically compared using GraphPad Prism 5.

Take `Oc1c(Cl)cc(-c2c[nH]c3ncnc(N[C@H]4CC[C@H](O)CC4)c23)cc1Cl` [Example 1, (trans)-2,6-dichloro-4-(4-(4-hydroxycyclohexylamino)-7H-pyrrolo[2,3-d]pyrimidin-5-yl)phenol]: the “expression of PD-L1” value in assay [1] is “significantly (P<0.01) decreased”. Besides, in assay [2], the “HIF-1α expression in tumor tissue” value is on record as “significantly (P<0.05) reduced”. Besides, the “Brd4 expression in tumor tissue” value in assay [3] is given as “significantly (P<0.001) reduced”. In addition, the “population of CD68+ macrophages in tumor tissue” value in [4] is recorded as “significantly (P<0.01) reduced”. The “population of CD8+ T cells” value was “increased” in assay [5] (alone) and “further increased (synergistic effect)” in [5] (combined with radiation). The cell viability result in [6] (MDA-MB-231, 24 hours) was “suppressed”; in [6] (MDA-MB-231, 48 hours) it was “inhibited the cell viability”; in assay [10] (BT20, 48 hours), “inhibited the cell viability”; in assay [10] (BT-20, 24 hours) it was “suppressed”. The “expression of PD-L1 in tumor tissue vs untreated negative control (NC)” value in assay [7] was “reduced”. Moreover, the “expression of c-myc in tumor tissue vs untreated negative control (NC)” value in assay [8] is reported as “reduced”. For the same compound, the “expression of BRD4 in tumor tissue vs untreated negative control (NC)” value in assay [9] is listed as “reduced”. Moreover, the “number of apoptotic bodies compared to NC (Negative Control)” value in assay [11] (T4, T5 and T6 groups, dose dependently) was “higher”. In addition, the figures for the “number of apoptotic body” value in [11] (T4: 5 mg/kg once i.v.), in [11] (T5: 10 mg/kg once i.v.) and in assay [11] (T6: 20 mg/kg once i.v.) were 9.6 ± 4.7, 9.2 ± 4.6 and 13.6 ± 7.4, respectively.

(Values after patent publication US12605382B2, “Pharmaceutical composition for preventing, alleviating, or treating cancer containing 2,6-dichloro-4-(4-(4-hydroxycyclohexylamino)-7H- pyrrolo[2,3-d]pyrimidin-5-yl)phenol as active ingredient” (JBKLAB CO., LTD., priority 2021, dated 2026).)
